Measured values: patent publication US20050266435A1, “VR1 receptors and uses thereof” (priority 2004, published 2005)

Key:
[1] = target: T1, mutant VR1 receptor Y511C (Homo sapiens, UniProt Q8NER1, Y511C); test: Calcium imaging with fura-2 in transfected HEK293 cells, low pH (pH 5.1) stimulus; assay type: cell-based; design: expressed in transfected cells; host or cells: HEK293
Experimental: (§1) The resulting sequence-verified mutant VR1 DNA was inserted into the pcDNA3.1 vector (Invitrogen). Human HEK293 cells were then transfected with the DNA, incubated at 37° C. for 24-48 hrs, and then analyzed for receptor response using calcium imaging techniques.
(§2) Calcium imaging was performed using a Zeiss Axiovert 200M fluorescence microscope equipped with a Photonics Polychrome IV monochrometer fluorescence excitation system as well as a multivalve perfusion system for delivering drugs. Cells were plated on 12 mm glass coverslips and loaded with fura2-AM for 30 min at 37° C. Imaging was performed by alternatively measuring the fluorescence excited at 340 nm and 380 nm at 5 sec time intervals. The ratio between these measured fluorescence values (F340/F380) was then calculated and graphed as a function of time. The 340/380 fluorescence ratio is proportional in a nonlinear way to the intracellular free calcium concentration. Since VR1 is a calcium channel, its opening results in an influx of calcium into the cytoplasm and an increase in the 340/380 fluorescence ratio.
(§3) A normal saline (pH 7.6) wash solution was used as the control solution. […] Compound 18 is named 4-(3-Chloropyridin-2-yl)-N-(4-trifluoromethyl-phenyl)benzamide, and is described and disclosed in commonly owned co-pending International Application No. PCT/US04/033099 filed Oct. […]

human VR1 = human VR1 (Homo sapiens, UniProt Q8NER1); conditions: cited from earlier work
[2] = target: T1, mutant VR1 receptor Y511C; test: Specific binding of 3H-Resiniferatoxin to membranes of 293 HEK cells; design: expressed in transfected cells; host or cells: HEK293; conditions: 3H-RTX 0.5 nM, absence or presence of unlabeled RTX 200 nM
Experimental: Specific binding of ^3H-Resiniferatoxin (RTX) to membranes of 293 HEK cells expressing human VR 1 and mutant VR 1 receptor Y511C was assessed and the results are presented in FIG. 6. Binding of ^3H-RTX (0.5 nM) to the membranes was conducted in the absence (labeled total binding) or presence (labeled non specific binding) of unlabeled RTX (200 nM) as indicated.

[3] = target: T2, mutant VR1 receptor Y511A (Homo sapiens, UniProt Q8NER1, Y511A); test: Two-electrode voltage clamp in Xenopus oocytes, capsaicin activation; assay type: cell-based; conditions: capsaicin concentrations as high as 100 μM
T2 construct: expressed in transfected cells; host or cells: Xenopus oocytes (RNA injected, pTNT vector)
Experimental: (§4) The ability of capsaicin to activate the mutant VR1 receptors was evaluated in an oocyte system. cDNAs containing the coding sequences of the unmutated human VR1 receptor as well as the mutant receptors Y511A, […], and S512Y were placed into the multiple-cloning site in the pTNT vector (Promega), which contains a T7 promoter sequence, the beta-globin 5′UTR, and a polyadenylation sequence to enhance translation and RNA stability. RNA was synthesized in-vitro using T7 RNA polymerase. The RNA for each channel was injected into Xenopus oocytes (obtained from Nasco, Inc) and incubated at 16° C. for 3-5 days. Standard two-electrode voltage clamp recordings were used to analyze the function of each expressed channel. Solutions were passed over the oocytes using a multiple-valve perfusion system.

[4] = target: T1, mutant VR1 receptor Y511C; test: as above; assay type: cell-based; conditions: capsaicin concentrations as high as 100 μM
Experimental: as §4

[5] = target: T3, wild-type human VR1 receptor (Homo sapiens, UniProt Q8NER1); test: as above; assay type: cell-based; conditions: 10 μM capsaicin
T3 construct: expressed in transfected cells; host or cells: Xenopus oocytes (RNA injected, pTNT vector)
Experimental: as §4

[6] = target: T4, mutant channel Y511A (VR1) (Homo sapiens, UniProt Q8NER1, Y511A); test: Calcium imaging with fura-2 in transfected HEK293 cells, low pH stimulus; assay type: cell-based
T4 construct: expressed in transfected cells; host or cells: HEK293
Experimental: as §1, §2, §3

[7] = target: T5, mutant channel S512Y (VR1) (Homo sapiens, UniProt Q8NER1, S512Y); test: as above; assay type: cell-based; design: expressed in transfected cells; host or cells: HEK293
Experimental: as §1, §2, §3

[8] = target: T5, mutant channel S512Y (VR1); test: Two-electrode voltage clamp in Xenopus oocytes, capsaicin activation; assay type: cell-based; design: expressed in transfected cells; host or cells: Xenopus oocytes (RNA injected, pTNT vector)
Experimental: as §4

rat VR1 = rat VR1 (Rattus norvegicus, UniProt O35433); conditions: cited from earlier work
Chain of rat VR1 (O35433 whole entry): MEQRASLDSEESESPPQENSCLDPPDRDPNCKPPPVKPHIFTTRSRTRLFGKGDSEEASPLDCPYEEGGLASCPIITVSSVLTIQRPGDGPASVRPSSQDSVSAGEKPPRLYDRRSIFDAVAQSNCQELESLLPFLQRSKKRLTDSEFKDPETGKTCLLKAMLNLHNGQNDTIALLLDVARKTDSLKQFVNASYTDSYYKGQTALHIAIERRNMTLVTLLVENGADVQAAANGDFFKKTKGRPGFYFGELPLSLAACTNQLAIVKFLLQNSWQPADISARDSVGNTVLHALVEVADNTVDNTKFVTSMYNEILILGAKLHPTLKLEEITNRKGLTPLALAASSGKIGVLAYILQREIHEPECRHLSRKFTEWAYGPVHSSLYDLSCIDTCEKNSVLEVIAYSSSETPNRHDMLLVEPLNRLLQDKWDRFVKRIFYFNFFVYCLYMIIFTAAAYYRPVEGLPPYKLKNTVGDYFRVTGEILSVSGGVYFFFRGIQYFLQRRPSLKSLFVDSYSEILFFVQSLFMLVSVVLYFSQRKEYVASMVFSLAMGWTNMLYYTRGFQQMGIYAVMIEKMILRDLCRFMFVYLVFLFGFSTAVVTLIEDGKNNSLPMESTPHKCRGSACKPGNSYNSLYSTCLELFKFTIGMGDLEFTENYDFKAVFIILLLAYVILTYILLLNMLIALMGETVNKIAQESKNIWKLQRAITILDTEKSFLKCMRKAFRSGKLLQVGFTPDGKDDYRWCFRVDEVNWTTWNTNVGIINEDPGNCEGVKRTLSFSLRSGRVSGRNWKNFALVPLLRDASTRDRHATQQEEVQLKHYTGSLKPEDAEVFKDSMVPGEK

O=C(Nc1ccc(C(F)(F)F)cc1)c1ccc(-c2ncccc2Cl)cc1 [Compound 18, 4-(3-Chloropyridin-2-yl)-N-(4-trifluoromethyl-phenyl)benzamide]
IC50 ([1]; mutant VR1 receptor channel, read-out: IC50 for channel blocking activity): 135 nM

COc1cc(CC(=O)OCC2=C[C@H]3[C@@H]4C(C)(C)[C@]4(OC(C)=O)[C@H](OC(=O)Cc4ccccc4)[C@@H](C)[C@]3(O)[C@@H]3C=C(C)C(=O)[C@@]3(O)C2)ccc1O [PPAHV, phorbol 12-phenylacetate 13 acetate 20-homovanillate]
agonist activity on human VR1 (human VR1; up to a concentration of 10•M): essentially inactive

C=C(C)[C@]12C[C@@H](C)[C@@]34O[C@](Cc5ccccc5)(O[C@@H]1[C@@H]3C=C(COC(=O)Cc1ccc(O)c(OC)c1)C[C@]1(O)C(=O)C(C)=C[C@@H]41)O2 [RTX, resiniferatoxin]
binding to the mutant VR1 receptor [2]: no significant binding

COc1cc(CNC(=O)CCCC/C=C/C(C)C)ccc1O [capsaicin]
capsaicin response (current) [3]: no detectable capsaicin response
capsaicin response (current) [4]: no detectable capsaicin response
capsaicin response (current) [5]: large response
sensitivity of channel to capsaicin [6]: capsaicin-insensitive
response to capsaicin (calcium influx) ([1]; 250 nM capsaicin, Y511C in transfected 293 cells): no detectable response
sensitivity of channel to capsaicin [7]: capsaicin-insensitive
capsaicin response (current) ([8]; 10 μM capsaicin (data not shown)): no detectable response
capsaicin response (current) ([8]; 100 μM capsaicin): small capsaicin response

Oc1cc2c(cc1O)CN(C(=S)NCCc1ccc(Cl)cc1)CCC2 [capsazine]
potency of inhibition of capsaicin activation, human VR1 versus rat (human VR1; greater potency on human VR1 receptors than rat): approximately 6 fold
block of VR1-mediated heat response (human VR1; human VR1): highly effective
block of low pH-evoked responses (human VR1; human VR1): blocked
block of low pH-evoked responses (rat VR1): not
inhibition of heat response (rat VR1): weak inhibitor
